From patent publication US20260327260A1, “PHOSPHONOALANINE OLIGOPEPTIDES AND METHODS OF MAKING AND USE THEREOF” (priority 2023, published 2026)

Columns and labels:
threonine synthase = details: role: inhibitor; cited from earlier work
PnaA [1] = experiment: PnaA kinetics: conversion of L-Glu and OAA to 2-KG and L-Asp, coupled to SerA/NADH oxidation; format: biochemical, Streptomyces sp. NRRL S-515; details: role: substrate (L-Glu, 0.5-15 mM); second substrate OAA 5 mM; pH 7.5, 30° C
Experimental: In addition to the transamination of Pn substrates, PnaA was also capable of catalyzing the reversible conversion of Glu and OAA into 2KG and Asp.
(§1) Kinetic analyses. All reactions (400 μL) were performed in 50 mM HEPES, 150 mM NaCl, pH 7.5, 30° C. using an Agilent Cary 300 spectrophotometer. The instrument was first blanked using the reaction containing the enzymes and the fixed substrate (without NADH). Initial rates were calculated from continual changes in absorbance (340 nm) before and after substrate addition. Data were analyzed using SigmaPlot 15.
Conversion of L-Glu and OAA to 2-KG and L-Asp by His6-SUMO-PnaA. Each reaction contained 1 μM PnaA, 5 μM SerA, 200 uM NADH, 5 mM OAA, the 340 nm absorbance change was recorded for 1 min to measure the background assumption of OAA by SerA, and were initiated by the addition of 0.5, 1, 1.5, 2, 3, 4, 6, 10, or 15 mM L-Glu. PnaA was pre-incubated with PLP (1:5) on ice for 10 min prior to use.

PnaA [2] = experiment: PnaA kinetics: conversion of L-PnAla and OAA to PnPy and L-Asp, coupled to PnPy reductase VlpB/NADH oxidation; format: biochemical, Streptomyces sp. NRRL S-515; details: second substrate OAA 5 mM
Experimental: (§2) Next, kinetic analyses were performed to derive insight on the substrate specificity and reaction selectivity of PnaA transamination. Apparent steady state parameters were calculated in spectrophotometric assays by coupling the formation of OAA, PnPy, and 2KG with NADH oxidation in the presence of malate dehydrogenase (MDH), PnPy reductase (VlpB), and 3-phosphoglycerate dehydrogenase (SerA), respectively (FIG. 18A-FIG. 24B). […] The micromolar Km value observed for PnaA with PnPy is similar to that of other PepM coupling enzymes such as PnPy decarboxylase [B27, B30].
as §1
Conversion of L-PnAla and OAA to PnPy and L-Asp by His6-SUMO-PnaA. Each reaction contained 1 μM PnaA, 5 μM VlpB, 200 uM NADH, 5 mM OAA, the 340 nm absorbance change was recorded for 1 min to measure the background assumption of OAA by VlpB. Then the reactions were initiated by the addition of 0.1, 0.2, 0.35, 0.5, 0.65, 0.8, or 1 mM PnAla. PnaA was pre-incubated with PLP (1:5) on ice for 10 min prior to use.

[3] = test system: metabotropic glutamate receptors; details: cerebral tissues; cited from earlier work
PnaB = PnaB ligation reactions (31P NMR, LC-HRMS); format: biochemical, Streptomyces sp. NRRL S-515; details: role: substrate
Experimental: (§3) These hypotheses were tested by overproducing and purifying recombinant PnaB and PnaC from E. coli for use in a series of biochemical assays. PnAla, Ala, and ATP were incubated with PnaB or PnaC and the reactions were monitored by ^31P NMR and LC-HRMS. […] To determine if either enzyme could convert Ala-Val into phosphonoalamide A, protein was removed from the PnaC reaction by ultrafiltration and Ala, ATP, and fresh PnaC or PnaB was added to the filtrate. LC-HRMS identified PnAla-Ala-Val as a product following the addition of PnaB, but not PnaC (FIG. 25A-FIG. 25C).
Biochemical assays of His6-PnaB. Typical reaction mixtures ([…]) contained 10 μM His6-PnaB, 3 mM ATP, 1 mM L-PnAla, 3 mM chemically synthesized L-Ala-L-Val, L-Val-L-Val, L-Ala-L-Ile, or L-Thr-L-Val in 50 mM Tris-HCl, 100 mM NaCl, 2 mM MgCl2 pH 9. Reactions were incubated at 30° C. for 2 hours, heat inactivated at 65° C. for 10 minutes, and then analyzed by NMR and LC-MS as described above.

PnaA with PnaD = experiment: PnaD-PnaA coupled forward reaction, 31P NMR (PEP to PnAla); format: biochemical, Streptomyces sp. NRRL S-515; details: role: product, PEP 1.5 mM, 2 hours
Experimental: Biochemical assays of His6-SUMO-PnaA with His6-PnaD. Typical reaction mixtures (300 μL) contained 20 μM His6-PnaD, 20 μM His6-SUMO-PnaA, 1.5 mM PEP, 3 mM L-Asp, 100 μM pyridoxal 5′-phosphate (PLP), and 2 mM MgCl2 in 50 mM HEPES, 150 mM NaCl, pH 7.5. Reactions were incubated at 30° C. for 2 hours, heat inactivated at 65° C. for 10 minutes, and then analyzed by ^31P NMR and LC-MS as described above.
Reactions in timecourse experiments ([…]) contained 10 μM His6-PnaD, 10 μM His6-SUMO-PnaA, 1.5 mM PEP, 10 mM L-Asp, 100 μM pyridoxal 5′-phosphate (PLP), and 2 mM MgCl2 in 50 mM HEPES, 150 mM NaCl, pH 7.5. Samples were where heat inactivated 1, 5, 10, 30, 60, 120, and 240 min after initiation and then analyzed by ^31P NMR as described above.
Reactions examining the effect of amino donor concentrations were the same as above, except they contained 1.5, 3, 5, or 10 mM of (L-Asp). Samples were heat inactivated after 120 min and then analyzed by ^31P NMR as described above.

[4] = test system: phosphoserine phosphatases; details: role: inhibitor; cited from earlier work
PnaC = PnaC dipeptide ligation reactions (LC-HRMS); format: biochemical, Streptomyces sp. NRRL S-515; details: role: substrate
Experimental: as §3
The ATP-Grasp ligases PnaC and PnaB underlie diversification of L-PnAla-containing oligopeptides. To understand the biochemical nature of this potential phosphonopeptide diversity, the substrate specificity of the dipeptide ligase PnaC was first delineated. Microscale biochemical reactions containing purified PnaC were performed with every combination of the 20 canonical amino acids and L-allo-threonine (231 total pairs of substrates). Reactions were analyzed by LC-HRMS to reveal putative dipeptides from 146 out of the 231 combinations. To distinguish residues in reactions containing isomeric pairs (e.g., Ile and Leu, Thr and allo-Thr) new reactions were prepared using ^15N-Ile and 4-^13C-2,3-D2-Thr as substrates. LC-HRMS/MS fragmentation analysis was then performed to verify all products and determine structures.
Biochemical assays of His6-PnaC. Typical reaction mixtures ([…]) contained 10 μM His6-PnaC, […], 3 mM of each L-amino acid, and 5 mM ATP in 50 mM Tris-HCl, 100 mM NaCl, 2 mM MgCl2 pH 9. Reactions were incubated at 30° C. for 16 hours, heat inactivated at 65° C. for 10 minutes, and then analyzed by LC-MS as described above.
Analysis of PnaC and PnaB substrate specificity reactions. An extracted ion chromatogram (EIC) was obtained for each potential product m z. The shape and retention time of each EIC were used to evaluate the quality and plausibility of true signals, and samples with low-confidence EICs were re-analyzed individually, to address the challenges of ion suppression (FIG. 31A-FIG. 31C) and background noise (FIG. 32A-FIG. 32D).

PnaA [5] = experiment: PnaA kinetics: conversion of PnPy and L-Asp to L-PnAla and OAA, coupled to MDH/NADH oxidation (340 nm); format: biochemical, Streptomyces sp. NRRL S-515; details: role: substrate (PnPy, 0.0025-0.015 mM); second substrate L-Asp 5 mM; pH 7.5, 30° C; apparent steady state
Experimental: as §2, §1
Conversion of PnPy and L-Asp to L-PnAla and OAA by His6-SUMO-PnaA. Each reaction contained 0.5 μM PnaA, 5 μM MDH, 200 uM NADH, 5 mM L-Asp, and were initiated by the addition of 0.0025, 0.00375, 0.005, 0.0065, 0.008, 0.01, or 0.015 mM PnPy. PnaA was pre-incubated with PLP (1:5) on ice for 10 min prior to use.

PnaA [6] = experiment: PnaA reverse transamination reaction, 31P NMR/LC-MS (PnAla to PnPy); format: biochemical, Streptomyces sp. NRRL S-515; details: role: product, 2 hours
Experimental: Biochemical assays of His6-SUMO-PnaA. Typical reaction mixtures (300 μL) contained 20 μM His6-SUMO-PnaA, 1.5 mM L-PnAla, 3 mM oxaloacetate, and 100 μM pyridoxal 5′-phosphate (PLP) in 50 mM HEPES, 150 mM NaCl, pH 7.5. Reactions were incubated at 30° C. for 2 hours, heat inactivated at 65° C. for 10 minutes, and then analyzed by NMR and LC-MS as described above.
Reactions in time course experiments (150 μL) contained 10 μM His6-SUMO-PnaA, 1.5 mM L-PnAla, 10 mM oxaloacetate (OAA), and 100 μM pyridoxal 5′-phosphate (PLP) in 50 mM HEPES, 150 mM NaCl, pH7.5. Samples were where heat inactivated 1, 5, 10, 30, 60, 120, and 240 min after initiation and then analyzed by ^31P NMR as described above.
Reactions examining the effect of keto-acid acceptor concentrations were the same as above, except they contained 1.5, 3, 5, or 10 mM of (OAA). Samples were heat inactivated after 120 min and then analyzed by ^31P NMR as described above.

MurA = details: role: inhibitor; mimics phosphoenolpyruvate; cited from earlier work
[7] = test system: 1-deoxy-D-xylulose 5-phosphate reductoisomerase; details: role: inhibitor; cited from earlier work
malaria = details: cited from earlier work
bacteria = details: cited from earlier work
[8] = role: substrate (PnAla), compared with PnPy
[9] = role: substrate (PnAla, 0.1-1 mM), pH 7.5, 30° C, reverse reaction

N[C@@H](/C=C\CP(=O)(O)O)C(=O)O [(Z)-L-2-amino-5-phosphono-3-pentenoic acid]
threonine synthase inhibition (threonine synthase): threonine synthase inhibitor

N[C@@H](CCC(=O)O)C(=O)O [Glu]
Km (PnaA [1]): 7500 µM
kcat (PnaA [1]): 0.31 s⁻¹

NC(CP(=O)(O)O)C(=O)O (stereo not drawn) [PnAla, 2-amino-3-phosphonopropionic acid]
higher Michaelis constant (fold, reverse reaction compared with PnPy reaction) (PnaA [2]; [8]): 100 fold
lower catalytic efficiency (fold, reverse reaction compared with PnPy reaction) (PnaA [2]; [8]): 100 fold
Km (PnaA [2]; [9]): 327 µM
kcat (PnaA [2]; [9]): 2.4 s⁻¹
metabotropic glutamate receptor antagonism [3]: selective antagonist of metabotropic glutamate receptors
conversion of PnAla into phosphonoalamide A (PnaB; L-PnAla 1 mM, with Ala-Val 3 mM and ATP 3 mM, pH 9, 30° C): complete conversion of PnAla into phosphonoalamide A by PnaB
modification of PnAla with Ala (PnaB; with Ala and ATP, up to 16 hrs): PnAla remained unmodified
PnAla accumulation at apparent equilibrium (PnaA with PnaD; Asp varied 1.5, 3, 5 or 10 mM): ≥ 70%
yield of PnAla from the PepM-coupled forward reaction (PnaA with PnaD; L-Asp 3 mM, PLP 100 μM, 30° C): 50%
phosphoserine phosphatase inhibition [4]: inhibitor of phosphoserine phosphatases
modification of PnAla with Ala (PnaC; with Ala and ATP, up to 16 hrs): PnAla remained unmodified
conversion of PnAla with Ala-Val (PnaC; with chemically synthesized Ala-Val and ATP): PnAla remained unmodified by PnaC

O=C(O)C(=O)CP(=O)(O)O [PnPy, 3-phosphonopyruvate]
Km (PnaA [5]): 4.8 µM
kcat (PnaA [5]): 2.3 s⁻¹
yield of PnPy from the reverse reaction (PnaA [6]; L-PnAla 1.5 mM, OAA 3 mM, PLP 100 μM, 30° C): 48%
PnPy accumulation at apparent equilibrium (PnaA [6]; PnAla 1.5 mM, OAA varied 1.5, 3, 5 or 10 mM): ≥ 70%

C[C@@H]1O[C@@H]1P(=O)(O)O [fosfomycin]
MurA inhibition (MurA): covalently inhibit MurA

O=CN(O)CCCP(=O)(O)O [fosmidomycin]
inhibition of 1-deoxy-D-xylulose 5-phosphate reductoisomerase [7]: inhibiting 1-deoxy-D-xylulose 5-phosphate reductoisomerase
results against malaria in human trials (malaria): promising results against malaria in human trials

CC(C)[C@H](NC(=O)[C@H](C)NC(=O)[C@@H](N)CP(=O)(O)O)C(=O)O [phosphonoalamide A]
spectrum of antimicrobial activity (bacteria): differing spectrums of antimicrobial activity

C[C@H](N)C(=O)N[C@@H](C)C(=O)N[C@@H](CP(=O)(O)O)C(=O)O [phosphonoalamide F, reference compound]
spectrum of antimicrobial activity (bacteria): differing spectrums of antimicrobial activity
